The values that follow come from US6579899B1, “Composition for treatment of stress” (Massachusetts Institute of Technology, priority 1998, dated 2003).

Where a name gives a salt, the structure may show the parent alone.

Holding throughout (format): in vivo, human
For assay [1], the system named is obese, stressed patients. Description: CES-D test of current levels of emotional distress in patients. An excerpt: (§1) A subgroup of obese individuals is identified, which individuals describe themselves as being unable to control their eating and who attempt to continue on a weight-reducing diet when experiencing emotional distress. […]
(§2) Objective measurements of emotional distress are made in some patients using the CES-D (Center for […] Depression Form) test, which measures current levels of emotional distress (Radloff, et al., The CES-D Scale: A Self Report Depression Scale for Research in the General Population Applied Psychological Measurement 1: 385-401, 1977); and the POMS (Profile of Mood States test, that assesses tension, depression, anger and confusion (McNair, et al., Profile of Mood States Manual;San Diego: Educational and Industrial Testing Service, 1971); both of these references are hereby incorporated by reference in their entirety. These tests are also given monthly during the treatment period. At the same time, patients also complete questionnaires that ask the patients to rate their appetite and hunger, and also to rate their tendency to eat in response to a variety of emotional and stressful triggers. The patients are also weighed monthly.

In assay [2] the test system is obese, stressed patients. Description: questionnaire rating appetite and hunger. Further details: Appetite and Cravings: scale not given here.
From the text: as §1, §2

Assay [3] concerns obese, stressed patients. The experiment in a line: questionnaire rating tendency to eat in response to emotional and stressful triggers. Further details: Emotional Triggers: scale not given here.
From the text: as §1, §2

Assay [4] in a line: body weight in four month weight loss program.
From the text: as §1, §2

The mark [5] stands for this setting: patient seven, 45 then 60 mg/day, Month 1, baseline 20.
The mark [6] stands for this setting: patient seven, 45 then 60 mg/day, Month 2, baseline 20.
The mark [7] stands for this setting: patient seven, 45 then 60 mg/day, Month 3, baseline 20.
The mark [8] stands for this setting: patient seven, 45 then 60 mg/day, Month 4, baseline 20.

Turning to `CC(CN(C)C)CN1c2ccccc2CCc2ccccc21` (stereo not shown) [trimipramine maleate], the “Mood Scores CES-D” value in assay [1] (patient eight, 75 then 100 mg/day, Month 1, baseline 25) amounted to 22; in assay [1] (patient eight, 75 then 100 mg/day, Month 2, baseline 25), 20; in assay [1] (patient eight, 75 then 100 mg/day, Month 3, baseline 25), 15; in assay [1] (patient eight, 75 then 100 mg/day, Month 4, baseline 25), 13. Further, the “Appetite and Cravings” value amounted to 9 in assay [2] (patient eight, 75 then 100 mg/day, Month 1, baseline 11); 8 in assay [2] (patient eight, 75 then 100 mg/day, Month 2, baseline 11); 13 in assay [2] (patient eight, 75 then 100 mg/day, Month 3, baseline 11); 6 in assay [2] (patient eight, 75 then 100 mg/day, Month 4, baseline 11). Also, the “Emotional Triggers” value in assay [3] (patient eight, 75 then 100 mg/day, Month 1, baseline 14) was found to be 8; in assay [3] (patient eight, 75 then 100 mg/day, Month 2, baseline 14), 13; in assay [3] (patient eight, 75 then 100 mg/day, Month 3, baseline 14), 6; in assay [3] (patient eight, 75 then 100 mg/day, Month 4, baseline 14) it was 3. Also, the “weight at the end of 4 months” value was found to be 71.8 kg in assay [4] (patient eight, 75 then 100 mg/day, starting weight 81.8 kg) and 158 pounds in assay [4] (patient eight, 75 then 100 mg/day, starting weight 180 pounds).

As to `NNCCc1ccccc1` [phenelzine sulfate], the “Mood Scores CES-D” value in assay [1] (setting [5]) was 22; in assay [1] (setting [6]), 20; in assay [1] (setting [7]) it was 15; in assay [1] (setting [8]), 14. Moreover, the “Appetite and Cravings” value in assay [2] (patient seven, 45 then 60 mg/day, Month 1, baseline 19) was found to be 15; in assay [2] (patient seven, 45 then 60 mg/day, Month 2, baseline 19) it was 8; in assay [2] (patient seven, 45 then 60 mg/day, Month 3, baseline 19), 13; in assay [2] (patient seven, 45 then 60 mg/day, Month 4, baseline 19), 12. Also, the “Emotional Triggers” value in assay [3] (setting [5]) worked out at 8; in assay [3] (setting [6]), 13; in assay [3] (setting [7]), 6; in assay [3] (setting [8]) it was 7. The “weight at the end of 4 months” value came out at 79.1 kg in assay [4] (patient seven, 45 then 60 mg/day, starting weight 83.6 kg) and 174 pounds in assay [4] (patient seven, 45 then 60 mg/day, starting weight 184 pounds).

As to `CNCCC(Oc1ccc(C(F)(F)F)cc1)c1ccccc1` (stereo not shown) [fluoxetine hydrochloride], the “Mood Scores CES-D” value in assay [1] (patient four, 20 rising to 80 mg/day, Month 1, baseline 15) worked out at 10; in assay [1] (patient four, 20 rising to 80 mg/day, Month 2, baseline 15) it was 2; in assay [1] (patient four, 20 rising to 80 mg/day, Month 3, baseline 15) it was 6; in assay [1] (patient four, 20 rising to 80 mg/day, Month 4, baseline 15), 7. Further, the “Appetite and Cravings” value in assay [2] (patient four, 20 rising to 80 mg/day, Month 1, baseline 17) is 6; in assay [2] (patient four, 20 rising to 80 mg/day, Month 2, baseline 17), 9; in assay [2] (patient four, 20 rising to 80 mg/day, Month 3, baseline 17), 3; in assay [2] (patient four, 20 rising to 80 mg/day, Month 4, baseline 17) it was 4. Besides, the “Emotional Triggers” value in assay [3] (patient four, 20 rising to 80 mg/day, Month 1, baseline 31) was 22; in assay [3] (patient four, 20 rising to 80 mg/day, Month 2, baseline 31), 13; in assay [3] (patient four, 20 rising to 80 mg/day, Month 3, baseline 31), 10; in assay [3] (patient four, 20 rising to 80 mg/day, Month 4, baseline 31), 12. The “weight at the end of 4 months” value in assay [4] (patient four, 20 rising to 80 mg/day, starting weight 83.2 kg) was determined as 78.2 kg; in assay [4] (patient four, 20 rising to 80 mg/day, starting weight 183 pounds), 172 pounds.

As for `O=C([O-])[O-].[Li+].[Li+]` [lithium carbonate], the “Mood Scores CES-D” value in assay [1] (patient one, 900 mg/day, Month 1, baseline 4) is on record as 3; in assay [1] (patient one, 900 mg/day, Month 2, baseline 4) it was 3; in assay [1] (patient one, 900 mg/day, Month 3, baseline 4), 2; in assay [1] (patient one, 900 mg/day, Month 4, baseline 4), 2. Besides, the “Appetite and Cravings” value in assay [2] (patient one, 900 mg/day, Month 1, baseline 14) is listed as 6; in assay [2] (patient one, 900 mg/day, Month 2, baseline 14), 9; in assay [2] (patient one, 900 mg/day, Month 3, baseline 14), 5; in assay [2] (patient one, 900 mg/day, Month 4, baseline 14), 3. Also, the “Emotional Triggers” value in assay [3] (patient one, 900 mg/day, Month 1, baseline 15) came out at 16; in assay [3] (patient one, 900 mg/day, Month 2, baseline 15), 10; in assay [3] (patient one, 900 mg/day, Month 3, baseline 15), 6; in assay [3] (patient one, 900 mg/day, Month 4, baseline 15), 7. Also, the “weight after 4 months” value amounted to 102.3 kg in assay [4] (patient one, 900 mg/day, starting weight 111.8 kg) and 225 pounds in assay [4] (patient one, 900 mg/day, starting weight 246 pounds).

Turning to `CN[C@H]1CC[C@@H](c2ccc(Cl)c(Cl)c2)c2ccccc21` [sertraline hydrochloride], the “Mood Scores CES-D” value is on record as 1 in assay [1] (patient nine, 100 mg/day in divided doses, Month 4, baseline 9); 16 in assay [1] (patient two, 50 rising to 200 mg/day, Month 1, baseline 20); 16 in assay [1] (patient two, 50 rising to 200 mg/day, Month 2, baseline 20); 10 in assay [1] (patient two, 50 rising to 200 mg/day, Month 3, baseline 20); 12 in assay [1] (patient two, 50 rising to 200 mg/day, Month 4, baseline 20). In addition, the “Appetite and Cravings” value in assay [2] (patient two, 50 rising to 200 mg/day, Month 1, baseline 15) amounted to 12; in assay [2] (patient two, 50 rising to 200 mg/day, Month 2, baseline 15), 5; in assay [2] (patient two, 50 rising to 200 mg/day, Month 3, baseline 15) it was 3; in assay [2] (patient two, 50 rising to 200 mg/day, Month 4, baseline 15) it was 1. The “Emotional Triggers” value in assay [3] (patient nine, 100 mg/day in divided doses, Month 4, baseline 12) is reported as 3; in assay [3] (patient two, 50 rising to 200 mg/day, Month 1, baseline 22), 12; in assay [3] (patient two, 50 rising to 200 mg/day, Month 2, baseline 22), 13; in assay [3] (patient two, 50 rising to 200 mg/day, Month 3, baseline 22) it was 5; in assay [3] (patient two, 50 rising to 200 mg/day, Month 4, baseline 22), 3. For the same compound, the “weight at the end of 4 months” value in assay [4] (patient nine, 100 mg/day in divided doses, starting weight 92.3 kg) was determined as 72.7 kg; in assay [4] (patient nine, 100 mg/day in divided doses, starting weight 203 pounds), 160 pounds; in assay [4] (patient two, 50 rising to 200 mg/day, starting weight 78.6 kg), 72.7 kg; in assay [4] (patient two, 50 rising to 200 mg/day, starting weight 173 pounds), 160 pounds.

Turning to `CN(C)CCC=C1c2ccccc2CCc2ccccc21` [amitriptyline hydrochloride], the “Mood Scores CES-D” value is on record as 22 in assay [1] (patient twelve, 75 then 100 mg/day, Month 1, baseline 29); 20 in assay [1] (patient twelve, 75 then 100 mg/day, Month 2, baseline 29); 23 in assay [1] (patient twelve, 75 then 100 mg/day, Month 3, baseline 29); 18 in assay [1] (patient twelve, 75 then 100 mg/day, Month 4, baseline 29). For the same compound, the “Appetite and Cravings” value in assay [2] (patient twelve, 75 then 100 mg/day, Month 1, baseline 19) is reported as 16; in assay [2] (patient twelve, 75 then 100 mg/day, Month 2, baseline 19), 8; in assay [2] (patient twelve, 75 then 100 mg/day, Month 3, baseline 19), 13; in assay [2] (patient twelve, 75 then 100 mg/day, Month 4, baseline 19) it was 8. For the same compound, the “Emotional Triggers” value in assay [3] (patient twelve, 75 then 100 mg/day, Month 1, baseline 25) was found to be 22; in assay [3] (patient twelve, 75 then 100 mg/day, Month 2, baseline 25), 13; in assay [3] (patient twelve, 75 then 100 mg/day, Month 3, baseline 25), 5; in assay [3] (patient twelve, 75 then 100 mg/day, Month 4, baseline 25), 3.

For `CN(C)CCCN1c2ccccc2CCc2ccccc21` [imipramine hydrochloride], the “Mood Scores CES-D” value stood at 34 in assay [1] (patient five, intramuscular 75 mg/day, Month 1, baseline 36); 26 in assay [1] (patient five, intramuscular 75 mg/day, Month 2, baseline 36); 21 in assay [1] (patient five, intramuscular 75 mg/day, Month 3, baseline 36); 20 in assay [1] (patient five, intramuscular 75 mg/day, Month 4, baseline 36). For the same compound, the “Appetite and Cravings” value in assay [2] (patient five, intramuscular 75 mg/day, Month 1, baseline 15) was found to be 12; in assay [2] (patient five, intramuscular 75 mg/day, Month 2, baseline 15), 7; in assay [2] (patient five, intramuscular 75 mg/day, Month 3, baseline 15), 3; in assay [2] (patient five, intramuscular 75 mg/day, Month 4, baseline 15) it was 6. Further, the “Emotional Triggers” value in assay [3] (patient five, intramuscular 75 mg/day, Month 1, baseline 22) came to 15; in assay [3] (patient five, intramuscular 75 mg/day, Month 2, baseline 22), 14; in assay [3] (patient five, intramuscular 75 mg/day, Month 3, baseline 22) it was 6; in assay [3] (patient five, intramuscular 75 mg/day, Month 4, baseline 22), 8. In addition, the “weight after 4 months” value worked out at 70.4 kg in assay [4] (patient five, intramuscular 75 mg/day, starting weight 74.1 kg) and 155 pounds in assay [4] (patient five, intramuscular 75 mg/day, starting weight 163 pounds).
